Laboratory results as given in publication PMC11667234, “CD63 as novel target for nanoemulsion-based ^19F MRI imaging and drug delivery to activated cardiac fibroblasts” (Theranostics, 2025).
Entries after “also recorded” stand apart in the source; their conditions may differ.

Experiments:
[1] = test system: human monocytes (THP1); assay: Peptide binding by flow cytometry (6-FAM fluorescence); assay type: cell-based; conditions: 30 min, 37°C, 6-FAM MFI, n = 3 replicates
Procedure: (§1) To study the in vitro binding of 6-FAM-conjugated peptides (see above) we used the following cells: mouse EpiSC and cardiac fibroblasts prepared as described above, normal human dermal fibroblasts (NHDF) from juvenile foreskin, and human monocytes (THP-1). In addition, we used primary human cardiac fibroblasts which were prepared by outgrowth culture technique from a heart sample of a patient with terminal heart failure undergoing orthotopic heart transplant surgery, kindly provided by the Cardiac Surgery Department of the University Hospital Düsseldorf, Düsseldorf, Germany. A tissue sample weighing about ~5 g was removed from the failing heart's apex and placed in cooled BIOPS buffer to be divided into tiny pieces for subsequent culture to allow cell outgrowth in a 6‑well plate with DMEM (low glucose), 20% FBS, and 1% penicillin-streptomycin. The medium was replaced every 2 days and biopsy pieces were discarded after 5 days. After 14 days, cells reached a confluence of about 80% and were then passed to T75 cell culture flasks.
(§2) The binding assay was performed as follows: Cells were detached with PBS-EDTA (5 mM) for 10 min at 37°C and centrifuged at 500 × g for 5 min. Afterwards, 5 µg of synthesized peptide (see above) was added to 800 µL (0.5 x 10^6 cells) of the cell suspension and incubated for 30 min at 37°C. To control the specific targeting of the EP9 peptide, scrambled and mutated peptides were used as negative controls. Subsequently, 200 µL of the cell suspension were washed in 2 mL MACS buffer (2 % FBS and 1 mM EDTA in PBS) and centrifuged at 500 × g for 5 min and the supernatant was discarded. One additional washing step was performed by resuspending the cell pellet in 200 µL of MACS buffer and centrifugation at 500 × g for 5 min. After discarding the supernatant, the cell pellet was resuspended in 200 µL of 4′6-diamidino-2-phenylindole dichlorhydrate (DAPI) (Merck, Darmstadt, Germany) (1 µg/mL) to allow discrimination of dead cells. Flow cytometric analysis was performed using a BD FACS Canto II flow cytometer (BD Biosciences, Franklin Lakes, NJ, USA).

[2] = test system: mouse EpiSC; assay: as above; assay type: cell-based; conditions: EpiSC from hearts 5 days after MI, 5 µg peptide, 30 min, 37°C, 6-FAM MFI, n = 3 hearts
Procedure: as §1, §2

[3] = test system: primary human cardiac fibroblasts; assay: as above; assay type: cell-based; conditions: outgrowth culture, patient with terminal heart failure, 30 min, 37°C, 6-FAM MFI, n = 2 replicates
Procedure: as §1, §2

[4] = test system: rat epicardial stromal cells (EpiSC); conditions: cultured EpiSC from infarcted rat hearts; cited from earlier work
Source text: Using bacterial phage display screening, our previous work identified five small peptides that bound to cultured EpiSC, isolated from infarcted rat hearts, with high affinity. […] In the present study, we first aimed to assess the potential of EP9 for in vivo imaging of epicardial and myocardial stromal cells (fibroblasts) in the post-MI mouse heart. To this end, we coupled EP9 to a ^19F-containing PFC-NE (EP9-PFC-NE), designed for the in vivo labeling of cardiac cells (Figure 1). At 5 days post-MI (50 min ischemia/reperfusion), 150 µL of EP9-PFC-NE were injected into the tail vein of infarcted mice. PFC-NE coupl ... || page 3: Figure S2. Binding of peptide EP9 in comparison to control peptides to mouse cardiac fibroblasts and human monocytes (THP1). The binding of peptide EP9 in comparison to EP9-derived scrambled and mutated (MUT) peptides (see Table S1), as well as a negative control peptide (Negative) with low affinity to cardiac stromal cells (as previously assessed: peptide EP50), was evaluated by flow cytometry after 30 min of incubation in vitro. 6-FAM fluorescence signal of the peptides at the surface of mouse cardiac fibroblasts isolated from hearts 5 days after MI (n = 3 hearts) and human mono ...

Ac-KLMLPRPGGGKC-NH2 [EP9, 7-amino acid peptide KLMLPRP with glycine spacer GGGK(FAM)C, from phage display on rat EpiSC]
binding to human monocytes (THP1) [1]: no discernible binding; also recorded: only negligible binding
binding to cultured mouse EpiSC [2]: superior binding
binding to primary human cardiac fibroblasts [3]: high binding
binding affinity to rat EpiSC [4]: high binding affinity; also recorded: highest affinity and specificity
